Measurements from patent US8431567B2 (Abbott GmbH & Co. KG, priority 2006, dated 2013).

Target: T1, human vasopressin V1b receptor (Homo sapiens, UniProt P47901)
T1 construct: expressed in transfected cells; host or cells: CHO-K1 (cell line hV1b_3H2_CHO), membrane preparation
T1 sequence (P47901 1-424): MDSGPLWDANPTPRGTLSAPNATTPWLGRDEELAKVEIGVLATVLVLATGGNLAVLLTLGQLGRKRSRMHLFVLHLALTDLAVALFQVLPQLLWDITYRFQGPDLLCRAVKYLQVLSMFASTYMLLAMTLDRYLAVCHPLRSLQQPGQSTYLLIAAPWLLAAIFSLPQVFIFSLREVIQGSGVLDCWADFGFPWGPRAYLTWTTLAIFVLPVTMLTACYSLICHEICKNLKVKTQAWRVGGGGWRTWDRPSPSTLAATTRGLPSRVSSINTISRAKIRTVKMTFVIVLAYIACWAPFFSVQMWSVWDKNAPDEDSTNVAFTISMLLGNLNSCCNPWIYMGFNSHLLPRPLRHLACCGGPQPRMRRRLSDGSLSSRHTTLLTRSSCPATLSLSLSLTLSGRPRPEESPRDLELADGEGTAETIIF
Assay: Vasopressin V1b receptor binding test
Settings: membranes of CHO-K1 cells, displacement of 1.5 nM 3H-AVP
How it was run: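 Radioligand competition binding to human V1b receptor membranes in 50 mM Tris, 10 mM MgCl2, 0.1% BSA, pH 7.4; nonspecific binding with 1 μM AVP.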

| Structure (SMILES) | Ki [µM] |
| --- | --- |
| CCOc1ccccc1C1(N2CCN(c3ccncc3)CC2)C(=O)N(S(=O)(=O)c2ccc(CC)cc2)c2ccc(C#N)cc21 (racemic) [Example 90, (±)-5-Cyano-3-(2-ethoxyphenyl)-1-(4-ethyl-benzenesulphonyl)-3-(4-pyridin-4-yl-piperazin-1-yl)-2,3-dihydro-1H-indol-2-one] | 0.05 to 0.5 |
| CCOc1ccccc1C1(N2CCN(c3ccncc3)CC2)C(=O)N(S(=O)(=O)c2ccc(NC(C)=O)cc2)c2ccc(C#N)cc21 (stereo not shown) [Example 46, N-{4-[5-Cyano-3-(2-ethoxyphenyl)-2-oxo-3-(4-pyridin-4-yl-piperazin-1-yl)-2,3-dihydro-indole-1-sulphonyl]-phenyl}-acetamide] | 0.05 to 0.5 |
| CCOc1ccccc1C1(N2CCN(c3ccncc3)CC2)C(=O)N(S(=O)(=O)c2ccc(N)cc2)c2ccc(C#N)cc21 (racemic) [Example 84, (±)-5-Cyano-1-(4-amino-benzenesulphonyl)-3-(2-ethoxyphenyl)-3-(4-pyridin-4-yl-piperazin-1-yl)-2,3-dihydro-1H-indol-2-one] | 0.05 to 0.5 |
| COc1ccccc1C1(N2CCN(c3ccncc3)CC2)C(=O)N(S(=O)(=O)c2ccc(Cl)cc2)c2ccc(Cl)cc21 (stereo not shown) [Example 18, 5-Chloro-1-(4-chloro-benzenesulphonyl)-3-(2-methoxyphenyl)-3-(4-pyridin-4-yl-piperazin-1-yl)-1,3-dihydro-indol-2-one] | 0.05 to 0.5 |

Other lines, results leading:

| Ki [µM] | Structure (SMILES) |
| --- | --- |
| 0.05 to 0.5 | COc1ccc(S(=O)(=O)N2C(=O)C(c3ccccc3OC)(N3CCN(c4ccncc4)CC3)c3cc(Cl)ccc32)cc1OC (stereo not shown) [Example 12, 5-Chloro-1-(3,4-dimethoxy-benzenesulphonyl)-3-(2-methoxyphenyl)-3-(4-pyridin-4-yl-piperazin-1-yl)-1,3-dihydro-indol-2-one] |
| < 0.05 | CCOc1ccc(OC)cc1C1(N2CCN(c3ccnc(C)c3)CC2)C(=O)N(S(=O)(=O)c2ccc(OC)cc2OC)c2ccc(C#N)cc21 (single isomer, unassigned; (+)) [Example 106, (+)-5-Cyano-1-(2,4-dimethoxy-benzenesulphonyl)-3-(2-ethoxy-5-methoxyphenyl)-3-[4-(2-methyl-pyridin-4-yl)-piperazin-1-yl]-2,3-dihydro-1H-indol-2-one] |
| < 0.05 | CCOc1ccc(OC)cc1C1(N2CCN(c3ccncc3)CC2)C(=O)N(S(=O)(=O)c2ccc(OC)cc2OC)c2ccc(C#N)cc21 (single isomer, unassigned; (+)) [Example 96, (+)-5-Cyano-1-(2,4-dimethoxy-benzenesulphonyl)-3-(2-ethoxy-5-methoxyphenyl)-3-(4-pyridin-4-yl-piperazin-1-yl)-2,3-dihydro-1H-indol-2-one] |
